Results taken from patent US8101581B2, “Use of D-ribose to treat cardiac arrhythmias” (Bioenergy, Inc., priority 2007, dated 2012).
Entries after “also recorded” stand apart in the source; their conditions may differ. Read-outs that look alike come from different tables or passages of the source.

Columns and labels:
atrial fibrillation = assay: D-ribose administered to patients with a diagnosis of atrial fibrillation; type: in vivo, human
Procedure: Eight patients with a diagnosis of atrial fibrillation were administered D-ribose. It can be seen from the above data that not all patients are completely and immediately relieved of atrial fibrillation. […] Therefore, it is recommended that patients ingest 10 to 15 grams of D-ribose daily.

[1] = cited from earlier work

## O=C[C@H](O)[C@H](O)[C@H](O)CO [D-ribose]
Atrial fibrillation; Patient 1, duration of AT Recent, daily amount N/R, other medication CoQ
  Relief?: complete, immediate
Atrial fibrillation; Patient 2, duration, daily amount and other medications N/R
  Relief?: complete, immediate
Atrial fibrillation; Patient 3, 5 grams D-ribose daily
  Relief?: only partial relief; also recorded: “helped”
Atrial fibrillation; Patient 4, 5 grams D-ribose daily
  Relief?: delayed relief; also recorded: complete, within two
Atrial fibrillation; Patient 5, duration 20 years, 10 grams D-ribose daily, CoQ, L-carnitine, Mg
  Relief?: complete and immediate relief
Atrial fibrillation; Patient 6, 10-15 grams D-ribose daily
  Relief?: complete and immediate relief; also recorded: “practically
Atrial fibrillation; Patient 7, 5 grams D-ribose daily
  Relief?: complete, immediate
Atrial fibrillation; administration of low doses of D-ribose
  Side effects: no side effects
Atrial fibrillation; patients on continued D-ribose
  Persistence of relief of atrial fibrillation: more than a year
[1]; dose of five grams, most people
  Digestive symptoms: without experiencing these digestive symptoms
[1]; doses over about eight grams, many people
  Digestive symptoms: flatulence and diarrhea
